How the values were obtained:
S. cerevisiae PE2 = assay: S. cerevisiae salt and GVL toxicity testing (growth, OD600); assay type: cell-based; settings: S. cerevisiae PE2, optical density after 40 hr of growth, 30° C., Yeast Nitrogen Base, 0.5% glucose plus wt % GVL or NaCl; FIGS. 22A/22B
Protocol: The strain used in these experiments was S. cerevisiae PE2 and in all cases was grown at 30° C. The toxicity medium used was formulated using 10x Yeast Nitrogen Base without Amino Acids, 0.5% glucose and the appropriate wt % of GVL or sodium chloride (Sigma). A single colony of S. cerevisiae was picked from YPD agar and grown overnight in 5 ml of YPD media (glass culture tubes, 20×150 mm, Fisher Scientific) agitated at 250 rpm in the incubator shaker. The resulting solution was used to inoculate 2 ml of the toxicity medium to an OD600 of 0.01 in 13×100 mm tubes (Fisher Scientific). The tubes were incubated for 40 hours under same conditions and sampled as described above.

E. coli MG1655 = assay: E. coli salt and GVL toxicity testing (growth, OD600); assay type: cell-based; settings: E. coli MG1655, optical density after 24 hr of growth, 37° C., MOPS minimal media with 0.5% glucose plus wt % GVL or NaCl; FIGS. 22A/22B
Protocol: The strain used in these experiments was wild type E. coli MG1655 and in all cases was grown at 37° C. The toxicity medium used was based on MOPS minimal media with 0.5% glucose and supplemented with the appropriate wt % of GVL or sodium chloride (Sigma). A single colony of E. coli was picked from LB agar and grown overnight in 5 ml of LB media (glass culture tubes, 20×150 mm, Fisher Scientific) agitated at 250 rpm in an incubator shaker (New Brunswick Scientific). The resulting solution was used to inoculate 2 ml of the toxicity medium to an OD600 of 0.01 in 13×100 mm tubes (Fisher Scientific). The tubes were incubated for 24 hours under the same conditions as described in the main methods and a final OD600 measured using a Biomate 3 spectrophotometer (ThermoFisher).

| Compound | effect of concentration on microbial growth (optical density) (S. cerevisiae PE2) | effect of concentration on microbial growth (optical density) (E. coli MG1655) |
| --- | --- | --- |
| [Cl-].[Na+] [NaCl, sodium chloride] | can inhibit microbial growth | can inhibit microbial growth |
| CC1CCC(=O)O1 (stereo not shown) [GVL, gamma-valerolactone] | can inhibit microbial growth | can inhibit microbial growth |
